As a reminder, the IC50 is the midpoint of a concentration-inhibition curve. Usually inhibition stands for how much of the control response was suppressed. By bioavailability is commonly meant the share of a dose that reaches the circulation, judged against a reference dose that is usually intravenous. Lower therefore signals poor availability. The Cmax is the highest concentration seen after dosing. The EC50 is the concentration at which the effect is half-maximal. Read a low EC50 as a more potent agent.

12 molecules from ChEMBL document CHEMBL5230142, “Natural spirocyclic alkaloids and polyphenols as multi target dementia leads” (Bioorg Med Chem, 2021) can be followed below.

Data set [1] deals with SH-SY5Y. Kind of data set: Neuroprotective activity in human SH-SY5Y cells assessed as prevention of glyceraldehyde-induced neurite shortening at 10 uM incubated for 72 hrs by microsocopic analysis. It is filed as functional.
In data set [2] the target is T1, Acetylcholinesterase (Homo sapiens, UniProt P22303). As to the kind of experiment: Inhibition of AChE (unknown origin) using acetylthiocholine iodide as substrate preincubated for 20 mins by DTNB reagent based Ellman's method. Background: Ellman's reagent forms a yellow product with free thiols.
The target of data set [3] is T1, Acetylcholinesterase. Kind of data set: Inhibition of human recombinant AChE using acetylthiocholine chloride as substrate incubated for 20 mins by DTNB reagent based Ellman's method.
Data set [4] deals with Beta-secretase 1 (Homo sapiens, UniProt P56817). As to the kind of experiment: Inhibition of human BACE1 (1 to 454 residues) using APP harboring Swedish Lys/Met mutant-derived peptide as substrate by FRET assay.
Data set [5] has as its system SH-SY5Y. Kind of data set: Neuroprotective activity in human SH-SY5Y cells assessed as prevention of glyceraldehyde-induced neurite shortening at 1 uM incubated for 72 hrs by microsocopic analysis. It is filed as functional.
For data set [6], the system named is VSMC. As to the kind of experiment: Cytotoxicity against rat VSMC cells assessed as reduction in cell viability at 5 uM measured after 4 days. To be noted: 96 h, time 4 day. It is filed as toxicity, cell-based.
In data set [7] the test system is VSMC. As to the kind of experiment: Cytotoxicity against rat VSMC cells assessed as reduction in cell viability at 20 uM measured after 4 days. It is filed as toxicity, cell-based. To be noted: 96 h, time 4 day.
Data set [8] concerns VSMC. As to the kind of experiment: Cytotoxicity against rat VSMC cells assessed as reduction in cell viability at 50 uM measured after 4 days. It is filed as toxicity, cell-based. To be noted: 96 h, time 4 day.
Data set [9] addresses Melatonin receptor type 1A (Homo sapiens, UniProt P48039). As to the kind of experiment: Agonist activity at human melatonin MT1 receptor stably expressing in human HEK293 cells. It is filed as cell-based.
The target in data set [10] is T2, Melatonin receptor type 1B (Homo sapiens, UniProt P49286).
T2 sequence (P49286 whole entry): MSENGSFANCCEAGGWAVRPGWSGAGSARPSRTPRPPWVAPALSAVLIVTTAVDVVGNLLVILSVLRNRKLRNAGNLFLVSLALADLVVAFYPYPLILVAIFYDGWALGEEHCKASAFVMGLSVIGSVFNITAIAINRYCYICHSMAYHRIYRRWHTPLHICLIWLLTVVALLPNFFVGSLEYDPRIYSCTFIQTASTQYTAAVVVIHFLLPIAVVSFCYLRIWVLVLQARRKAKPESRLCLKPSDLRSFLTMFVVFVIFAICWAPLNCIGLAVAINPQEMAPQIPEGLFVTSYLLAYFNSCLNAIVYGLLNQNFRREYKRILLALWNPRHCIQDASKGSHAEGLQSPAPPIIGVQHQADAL
Kind of data set: Agonist activity at human melatonin MT2 receptor stably expressing in human HEK293 cells. It is filed as cell-based.

The target in data set [11] is Gamma-secretase. As to the kind of experiment: Inhibition of gamma-secretase (unknown origin). It is filed as protein-complex assay, Homo sapiens.
Data set [12] deals with Gamma-secretase (Homo sapiens) (UniProt Q96BI3+Q9NZ42+Q8WW43+P49768+Q92542+P49810). Kind of data set: Binding affinity to his-tagged gamma-secretase (unknown origin) assessed as equilibrium constant by surface plasmon resonance analysis. Type of data set: protein-complex assay. In general terms: In SPR one partner is held on a chip, and binding of the other changes the refractive index at the surface.

For data set [13], the target named is Amyloid-beta precursor protein (Homo sapiens) (UniProt P05067). As to the kind of experiment: Inhibition of amyloid beta (unknown origin) at 10 uM relative to control.
The nature of data set [14]: Oral bioavailability in RN rat at 20 mg/kg. It is filed as ADME, organism-based. To be noted: in vivo.
Data set [15] is described as follows: Drug metabolism in RN rat assessed as epimerization ratio at 20 mg/kg, po. It is filed as ADME, organism-based. To be noted: in vivo, read-out: Drug metabolism.
Data set [16] addresses Amyloid-beta precursor protein (Homo sapiens) (UniProt P05067). Kind of data set: Inhibition of amyloid beta (unknown origin) fibril formation at 20 uM incubated for 7 days by ThT fluorescence assay relative to control. The note with it: time 7.0 day.
Data set [17] shares this target. Kind of data set: Inhibition of amyloid beta (unknown origin) assessed as reduction in fibril disaggregation at 20 uM incubated for 7 days by ThT fluorescence assay relative to control. To be noted: time 7.0 day.
A short description of data set [18]: Cmax in mouse plasma at 250 mg/kg, po measured after 24 hrs. Type of data set: ADME, organism-based. The arrangement: dose 250 mg/kg, time 24 hrs, route po.
The target in data set [19] is T3, 5-hydroxytryptamine receptor 1A (Homo sapiens, UniProt P08908).
T3 sequence (P08908 whole entry): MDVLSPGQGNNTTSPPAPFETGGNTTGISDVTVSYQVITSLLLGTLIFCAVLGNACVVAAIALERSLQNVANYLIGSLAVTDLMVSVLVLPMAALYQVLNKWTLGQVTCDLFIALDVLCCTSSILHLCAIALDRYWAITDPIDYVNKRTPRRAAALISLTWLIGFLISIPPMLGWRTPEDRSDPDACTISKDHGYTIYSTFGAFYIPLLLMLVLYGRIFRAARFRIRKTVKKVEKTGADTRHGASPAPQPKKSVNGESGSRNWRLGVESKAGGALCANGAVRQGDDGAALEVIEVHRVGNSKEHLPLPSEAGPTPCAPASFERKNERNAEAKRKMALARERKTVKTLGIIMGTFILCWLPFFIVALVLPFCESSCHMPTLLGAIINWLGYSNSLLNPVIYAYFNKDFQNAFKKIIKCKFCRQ
Kind of data set: Agonist activity at 5HT1A (unknown origin) receptor.

Chain of Amyloid-beta precursor protein (Homo sapiens) (P05067 whole entry): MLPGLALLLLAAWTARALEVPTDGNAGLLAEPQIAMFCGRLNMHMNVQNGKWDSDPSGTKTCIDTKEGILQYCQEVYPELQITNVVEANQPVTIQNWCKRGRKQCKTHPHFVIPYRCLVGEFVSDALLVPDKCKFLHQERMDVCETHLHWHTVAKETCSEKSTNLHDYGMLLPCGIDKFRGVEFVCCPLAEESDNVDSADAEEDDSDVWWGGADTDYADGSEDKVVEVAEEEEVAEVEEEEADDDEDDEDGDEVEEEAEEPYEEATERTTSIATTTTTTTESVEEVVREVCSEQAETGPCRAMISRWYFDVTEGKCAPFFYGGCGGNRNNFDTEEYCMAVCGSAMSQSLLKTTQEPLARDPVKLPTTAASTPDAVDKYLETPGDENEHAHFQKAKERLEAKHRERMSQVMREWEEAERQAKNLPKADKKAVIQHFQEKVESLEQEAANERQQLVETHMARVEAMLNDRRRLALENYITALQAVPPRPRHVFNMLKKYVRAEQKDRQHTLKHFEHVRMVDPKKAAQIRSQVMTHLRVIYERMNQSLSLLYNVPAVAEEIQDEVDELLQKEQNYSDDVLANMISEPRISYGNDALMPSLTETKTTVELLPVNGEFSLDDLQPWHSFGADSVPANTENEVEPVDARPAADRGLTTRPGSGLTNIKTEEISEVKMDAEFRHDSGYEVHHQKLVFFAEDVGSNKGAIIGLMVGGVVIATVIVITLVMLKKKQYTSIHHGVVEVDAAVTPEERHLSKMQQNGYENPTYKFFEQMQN
T1 sequence (P22303 whole entry): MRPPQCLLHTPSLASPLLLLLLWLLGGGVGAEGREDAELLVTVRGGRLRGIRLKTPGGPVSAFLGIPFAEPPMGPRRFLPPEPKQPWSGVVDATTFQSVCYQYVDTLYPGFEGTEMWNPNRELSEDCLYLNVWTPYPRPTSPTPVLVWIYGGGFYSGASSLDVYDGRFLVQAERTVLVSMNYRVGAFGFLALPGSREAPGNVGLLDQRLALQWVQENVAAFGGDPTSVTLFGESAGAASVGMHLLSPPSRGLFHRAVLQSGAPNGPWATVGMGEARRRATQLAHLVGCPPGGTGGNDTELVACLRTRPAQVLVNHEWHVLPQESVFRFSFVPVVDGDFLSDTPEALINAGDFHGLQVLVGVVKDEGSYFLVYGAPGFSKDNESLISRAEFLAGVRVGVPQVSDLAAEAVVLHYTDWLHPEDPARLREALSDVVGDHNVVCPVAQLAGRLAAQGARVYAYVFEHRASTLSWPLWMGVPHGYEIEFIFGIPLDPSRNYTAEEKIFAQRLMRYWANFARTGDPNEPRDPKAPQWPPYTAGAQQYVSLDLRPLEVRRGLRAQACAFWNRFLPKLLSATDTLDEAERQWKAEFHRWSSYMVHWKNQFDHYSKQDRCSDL
Chain of Beta-secretase 1 (P56817 whole entry, the tested form may be a part): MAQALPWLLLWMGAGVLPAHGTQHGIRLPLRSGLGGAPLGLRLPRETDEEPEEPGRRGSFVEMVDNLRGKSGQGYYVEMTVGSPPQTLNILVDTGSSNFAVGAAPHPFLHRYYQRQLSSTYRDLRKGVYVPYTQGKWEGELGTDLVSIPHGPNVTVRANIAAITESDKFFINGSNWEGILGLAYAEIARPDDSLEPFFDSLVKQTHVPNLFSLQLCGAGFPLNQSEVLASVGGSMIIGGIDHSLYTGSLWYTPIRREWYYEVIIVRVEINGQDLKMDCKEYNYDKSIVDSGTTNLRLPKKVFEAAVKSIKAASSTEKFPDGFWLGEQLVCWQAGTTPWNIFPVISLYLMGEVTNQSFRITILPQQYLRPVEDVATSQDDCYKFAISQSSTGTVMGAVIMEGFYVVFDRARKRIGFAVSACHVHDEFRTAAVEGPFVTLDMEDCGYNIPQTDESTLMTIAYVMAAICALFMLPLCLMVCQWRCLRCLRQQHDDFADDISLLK
Chain of Melatonin receptor type 1A (P48039 whole entry): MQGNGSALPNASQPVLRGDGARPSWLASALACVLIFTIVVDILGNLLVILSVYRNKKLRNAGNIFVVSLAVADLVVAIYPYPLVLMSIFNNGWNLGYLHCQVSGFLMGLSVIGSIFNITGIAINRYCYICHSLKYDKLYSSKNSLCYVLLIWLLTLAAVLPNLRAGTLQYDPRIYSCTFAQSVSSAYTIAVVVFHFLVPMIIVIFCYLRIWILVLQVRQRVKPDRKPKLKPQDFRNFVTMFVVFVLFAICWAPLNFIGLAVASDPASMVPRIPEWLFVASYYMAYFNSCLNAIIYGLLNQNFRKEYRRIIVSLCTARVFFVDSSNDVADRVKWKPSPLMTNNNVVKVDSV

Take `COC(=O)[C@H]1C(=O)N2CC[C@]3(C(=O)Nc4ccccc43)[C@H]2C[C@@H]1c1ccc(-c2cccc(Cl)c2)o1`: in data set [1], the Activity was found to be 47%.
In the case of `C/C=C1/CN2CCc3c([nH]c4ccccc34)[C@@H]2CC1/C(=C\C(=O)OC)OC` (stereo partly drawn), the IC50 in data set [2] is 3.7 µM; in [3], 10.1 µM.
`CC#Cc1cncc(-c2ccc3c(c2)[C@@]2(CO3)N=C(N)C[C@H]2C(F)(F)F)c1` came in with an IC50 in [4] of 0.115 µM.
With `COC(=O)[C@@H]1C(=O)N2CC[C@@]3(C(=O)Nc4ccccc43)[C@@H]2C[C@H]1c1ccc(-c2ccc(Cl)c(Cl)c2)o1`, the Activity in data set [1] turned out to be 61%.
For the molecule `COC(=O)[C@@H]1C(=O)N2CC[C@@]3(C(=O)Nc4ccccc43)[C@@H]2C[C@H]1c1ccc(-c2cccc(Cl)c2)o1`, the Activity in data set [1] is on record as 20%.
On to `COC(=O)[C@H]1C(=O)N2CC[C@]3(C(=O)Nc4ccccc43)[C@H]2C[C@@H]1c1ccc(-c2ccc(Cl)c(Cl)c2)o1`, for which, in [5], the Activity turned out to be 42%.
On to `CC[C@H]1CN2CC[C@]3(C(=O)Nc4ccccc43)C2C[C@@H]1/C(=C\OC)C(=O)OC` (stereo partly drawn), for which the Activity was found to be 25% in [6], 63% in data set [7] and 88% in data set [8].
Regarding `Oc1cc(O)c2c(c1)O[C@H](c1ccc(O)c(O)c1)[C@@H](O)C2` [CIANIDANOL], the IC50 in data set [9] came out at 25.8 µM; in data set [10], 47.3 µM.
For the molecule `CC(C)[C@@]1(NC(=O)[C@@H]2C[C@@H]3c4cccc5[nH]cc(c45)C[C@H]3N(C)C2)O[C@@]2(O)[C@@H]3CCCN3C(=O)[C@H](Cc3ccccc3)N2C1=O` [DIHYDROERGOCRISTINE], in data set [11], 25 µM corresponded to half-maximal inhibition (IC50). Besides, the Ke in data set [12] stood at 9.8 µM. In addition, the inhibition in [13] turned out to be 30%.
In turn, `CC[C@H]1CN2CC[C@@]3(C(=O)Nc4ccccc43)[C@@H]2C[C@@H]1/C(=C\OC)C(=O)OC` [ISORHYNCHOPHYLLINE] showed a bioavailability in data set [14] of 3.3%. Also, the metabolised in data set [15] came to 22%.
For the molecule `Oc1cc(O)c2c(c1)O[C@H](c1ccc(O)c(O)c1)[C@H](O)[C@H]2c1c(O)cc(O)c2c1O[C@H](c1ccc(O)c(O)c1)[C@H](O)C2` [PROCYANIDIN B2], the inhibition is 94% in [16] and 63% in data set [17]. In [18], this molecule had a peak concentration (Cmax) of 160 nM.
In turn, `CC[C@H]1CN2CC[C@]3(C(=O)Nc4ccccc43)[C@@H]2C[C@@H]1/C(=C\OC)C(=O)OC` [RHYNCHOPHYLLINE] had an EC50 in [19] of 45.3 µM. Also, the bioavailability in [14] was 25.9%. In data set [15], the metabolised came out at 22%.
